# Measured values from ChEMBL document CHEMBL3259791, “Discovery of (E)-3-((styrylsulfonyl)methyl)pyridine and (E)-2-((styrylsulfonyl)methyl)pyridine derivatives as anticancer agents: synthesis, structure-activity relationships, and biological activities” (J Med Chem, 2014).
# Calls of active or inactive are those of the source. No cut-off for these calls is given here.
# Assays:
# MCF7 [1] = assay: Antiproliferative activity against ER positive human MCF7 cells assessed as cell growth inhibition after 72 hrs by MTT assay; format: functional; details: MCF7, 72 h
# HeLa [2] = assay: Antiproliferative activity against human HeLa cells assessed as cell growth inhibition after 72 hrs by MTT assay; format: functional
# LNCaP [3] = assay: Antiproliferative activity against AR positive human LNCAP cells assessed as cell growth inhibition after 72 hrs by MTT assay; format: functional
# A2780 [4] = assay: Cell cycle arrest in human A2780 cells assessed as accumulation at subG1 phase at 0.06 uM after 24 hrs by flow cytometric analysis (reference value: 0.62%); format: functional
# A2780 [5] = assay: Cell cycle arrest in human A2780 cells assessed as accumulation at G2/M phase at 0.06 uM after 24 hrs by flow cytometric analysis (reference value: 21.81%); format: functional
# A2780 [6] = assay: Cell cycle arrest in human A2780 cells assessed as accumulation at G2/M phase at […] after 24 hrs by flow cytometric analysis (reference value: 21.81%); format: functional
# A2780 [7] = assay: Cell cycle arrest in human A2780 cells assessed as accumulation at subG1 phase at 1 uM after 24 hrs by flow cytometric analysis (reference value: 0.62%); format: functional
# WI-38 [8] = assay: Cell cycle arrest in human WI38 cells assessed as accumulation at S phase at 0.06 uM after 24 hrs by flow cytometric analysis (reference value: 16.25%); format: functional
# WI-38 [9] = assay: Cell cycle arrest in human WI38 cells assessed as accumulation at G2/M phase at 0.06 uM after 24 hrs by flow cytometric analysis (reference value: 17.36%); format: functional
# WI-38 [10] = assay: Cell cycle arrest in human WI38 cells assessed as accumulation at S phase at […] after 24 hrs by flow cytometric analysis (reference value: 16.25%); format: functional
# WI-38 [11] = assay: Cell cycle arrest in human WI38 cells assessed as accumulation at G2/M phase at […] after 24 hrs by flow cytometric analysis (reference value: 17.36%); format: functional
# WI-38 [12] = assay: Cell cycle arrest in human WI38 cells assessed as accumulation at G1 phase at 1 uM after 24 hrs by flow cytometric analysis (reference value: 55.89%); format: functional
# WI-38 [13] = assay: Cell cycle arrest in human WI38 cells assessed as accumulation at S phase at 1 uM after 24 hrs by flow cytometric analysis (reference value: 16.25%); format: functional
# WI-38 [14] = assay: Cell cycle arrest in human WI38 cells assessed as accumulation at G2/M phase at 1 uM after 24 hrs by flow cytometric analysis (reference value: 17.36%); format: functional
# A2780 [15] = assay: Induction of apoptosis in human A2780 cells assessed as viable cells at 0.06 uM after 48 hrs by annexin V/PI double staining (reference value: 82.12%); format: functional; details: A2780, 48 h, read-out: Activity
# A2780 [16] = assay: Induction of apoptosis in human A2780 cells assessed as necrotic cells at […] after 48 hrs by annexin V/PI double staining (reference value: 0.53%); format: functional
# A2780 [17] = assay: Induction of apoptosis in human A2780 cells assessed as necrotic cells at 1 uM after 48 hrs by annexin V/PI double staining (reference value: 0.53%); format: functional
# WI-38 [18] = assay: Induction of apoptosis in human WI38 cells assessed as late-stage apoptotic cells at 0.06 uM after 48 hrs by annexin V/PI double staining (reference value: 16.26%); format: functional
# WI-38 [19] = assay: Induction of apoptosis in human WI38 cells assessed as necrotic cells at […] after 48 hrs by annexin V/PI double staining (reference value: 0.99%); format: functional
# WI-38 [20] = assay: Induction of apoptosis in human WI38 cells assessed as late-stage apoptotic cells at […] after 48 hrs by annexin V/PI double staining (reference value: 16.26%); format: functional
# [21] = Octanol-buffer partition coefficient, log D of the compound at pH 7.4 by shake-flask method; format: physicochemical
# [22] = Aqueous solubility of the compound by turbidimetric solubility assay; format: physicochemical; details: buffer
# [23] = Apparent permeability across apical to basolateral side in human Caco2 cells; format: ADME, cell-based; details: Caco-2
# [24] = Apparent permeability across basolateral to apical side in human Caco2 cells; format: ADME, cell-based; details: Caco-2
# [25] = Half life in rat liver microsomes; format: ADME
# [26] = target: Voltage-gated inwardly rectifying potassium channel KCNH2 (Homo sapiens, UniProt Q12809); assay: Inhibition of human ERG expressed in CHO cells
# Chain of Voltage-gated inwardly rectifying potassium channel KCNH2 (Q12809 whole entry): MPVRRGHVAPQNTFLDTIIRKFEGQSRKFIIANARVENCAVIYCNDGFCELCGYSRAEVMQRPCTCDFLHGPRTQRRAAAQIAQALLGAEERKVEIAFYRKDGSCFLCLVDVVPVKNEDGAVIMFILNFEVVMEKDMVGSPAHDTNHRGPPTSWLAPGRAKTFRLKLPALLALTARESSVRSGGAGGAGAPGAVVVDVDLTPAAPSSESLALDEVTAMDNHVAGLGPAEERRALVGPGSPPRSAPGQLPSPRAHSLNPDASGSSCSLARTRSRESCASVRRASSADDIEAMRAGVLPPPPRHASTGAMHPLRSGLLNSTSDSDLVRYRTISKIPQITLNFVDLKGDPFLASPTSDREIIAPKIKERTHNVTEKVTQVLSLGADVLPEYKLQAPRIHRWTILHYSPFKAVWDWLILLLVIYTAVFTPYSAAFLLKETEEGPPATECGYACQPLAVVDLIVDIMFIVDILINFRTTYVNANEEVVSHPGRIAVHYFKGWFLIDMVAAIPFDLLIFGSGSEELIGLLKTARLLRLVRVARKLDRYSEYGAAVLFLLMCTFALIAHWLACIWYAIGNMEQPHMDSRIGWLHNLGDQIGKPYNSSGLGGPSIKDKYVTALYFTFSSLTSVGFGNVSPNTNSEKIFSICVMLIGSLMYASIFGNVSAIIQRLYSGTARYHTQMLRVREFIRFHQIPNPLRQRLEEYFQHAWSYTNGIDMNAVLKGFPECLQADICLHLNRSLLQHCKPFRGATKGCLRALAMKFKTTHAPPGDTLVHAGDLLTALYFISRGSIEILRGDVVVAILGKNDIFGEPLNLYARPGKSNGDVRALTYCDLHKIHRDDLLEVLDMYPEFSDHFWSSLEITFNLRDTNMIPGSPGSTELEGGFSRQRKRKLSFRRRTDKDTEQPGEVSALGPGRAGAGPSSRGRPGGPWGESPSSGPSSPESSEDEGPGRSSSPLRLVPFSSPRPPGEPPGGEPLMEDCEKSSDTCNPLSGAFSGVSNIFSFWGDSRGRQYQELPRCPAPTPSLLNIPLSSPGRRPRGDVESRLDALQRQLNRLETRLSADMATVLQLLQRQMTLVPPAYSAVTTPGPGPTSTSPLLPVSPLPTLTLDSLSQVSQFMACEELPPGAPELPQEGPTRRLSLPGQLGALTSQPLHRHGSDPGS
# [27] = Cmax in mouse at 40 mg/kg, po after 24 hrs; format: ADME, organism-based; set-up: dose 40 mg/kg, route oral; details: in vivo
# [28] = AUC (0 to t) in mouse at 40 mg/kg, po after 24 hrs; format: ADME, organism-based; set-up: time < 24 hr, dose 40 mg/kg, route oral; details: plasma
# [29] = Elimination half life in mouse at 40 mg/kg, po after 24 hrs; format: ADME, organism-based; set-up: dose 40 mg/kg, route oral; details: in vivo, read-out: beta t1/2 (converted)
# [30] = Oral bioavailability (0 to t) in mouse at 40 mg/kg after 24 hrs; format: ADME, organism-based; details: in vivo
# A2780 [31] = assay: Antitumor activity against human A2780 cells xenografted in mouse assessed as delay tumor growth at 50 mg/kg, po administered every second day for 2 weeks; format: functional
# A2780 [32] = assay: Antitumor activity against human A2780 cells xenografted in mouse assessed as increase in life span at 50 mg/kg, po administered every second day for 2 weeks; format: functional
# MCF7 [33] = assay: Selectivity ratio of IC50 for human WI38 cells to IC50 for ER positive human MCF7 cells; format: functional
# LNCaP [34] = assay: Selectivity ratio of IC50 for human WI38 cells to IC50 for AR positive human LNCAP cells; format: functional
# A2780 [35] = assay: Selectivity ratio of IC50 for human WI38 cells to IC50 for human A2780 cells; format: functional
# HeLa [36] = assay: Ratio of ON01910 IC50 to compound IC50 for human HeLa cells; format: functional
# LNCaP [37] = assay: Ratio of ON01910 IC50 to compound IC50 for AR positive human LNCAP cells; format: functional
# A2780 [38] = assay: Ratio of ON01910 IC50 to compound IC50 for human A2780 cells; format: functional
# A2780 [39] = assay: Induction of apoptosis in human A2780 cells assessed as caspase-3/7 activation at 0.06 uM after 24 hrs by using Apo-ONE homogeneous caspase-3/7 kit; format: functional, cell-based
# WI-38 [40] = assay: Induction of apoptosis in human WI38 cells assessed as caspase-3/7 activation up to 1 uM after 24 hrs by using Apo-ONE homogeneous caspase-3/7 kit; format: functional, cell-based
# A2780 [41] = assay: Reduction in CDC25C level in human A2780 cells at 0.03 uM after 24 hrs by Western blot analysis; format: functional, cell-based
# A2780 [42] = assay: Reduction in Mcl1 level in human A2780 cells at 0.03 uM after 24 hrs by Western blot analysis; format: functional, cell-based
# [43] = Dissociation constant, pKa of the compound by pH-metric method; format: physicochemical
# [44] = Cmax in mouse at 10 mg/kg, po after 24 hrs; format: ADME, organism-based; set-up: dose 10 mg/kg, route oral; details: in vivo
# [45] = Oral bioavailability (0 to t) in mouse at 10 mg/kg after 24 hrs; format: ADME, organism-based; details: in vivo
# A2780 [46] = assay: Induction of apoptosis in human A2780 cells assessed as caspase-3/7 activation at 1 uM after 24 hrs by using Apo-ONE homogeneous caspase-3/7 kit; format: functional, cell-based
# A2780 [47] = assay: Reduction in CDC25C level in human A2780 cells at 1 uM after 24 hrs by Western blot analysis; format: functional, cell-based
compound,measurement,setting,value
COc1cc(OC)c(/C=C/S(=O)(=O)Cc2ccc(OC)c(NCC(=O)O)c2)c(OC)c1 [RIGOSERTIB],GI50,MCF7 [1],50 nM
same,GI50,HeLa [2],12 nM
same,GI50,LNCaP [3],25 nM
same,Activity,A2780 [4],0.63%
same,Activity,A2780 [5],19.63%
same,Activity,A2780 [6],31.77%
same,Activity,A2780 [7],0.32%
same,Activity,WI-38 [8],11.86%
same,Activity,WI-38 [9],18%
same,Activity,WI-38 [10],9.32%
same,Activity,WI-38 [11],26.83%
same,Activity,WI-38 [12],53.8%
same,Activity,WI-38 [13],10.36%
same,Activity,WI-38 [14],19.27%
same,viability at 0.06 µM,A2780 [15],89.5%
same,Activity,A2780 [16],0.71%
same,Activity,A2780 [17],1.19%
same,Activity,WI-38 [18],11.54%
same,Activity,WI-38 [19],1.89%
same,Activity,WI-38 [20],19.49%
COc1cc(OC)c(/C=C/S(=O)(=O)Cc2ccc(OC)c(N)n2)c(OC)c1,logD,[21],2.41
same,solubility kinetic,[22],> 100 µM
same,Papp A→B,[23],33.1 ×10⁻⁶ cm/s
same,Papp B→A,[24],26.2 ×10⁻⁶ cm/s
same,half-life,[25],0.25 h
same,IC50,[26],> 25000 nM
same,Cmax,[27],2500 nM
same,AUC(0-t) at 24 h,[28],23.1 µM·h
same,half-life,[29],77.1 h
same,bioavailability,[30],44%
same,Activity,A2780 [31],52%
same,Activity,A2780 [32],80%
same,Ratio IC50,MCF7 [33],>1400
same,Ratio IC50,LNCaP [34],>1400
same,Ratio IC50,A2780 [35],>1400
same,Ratio IC50,HeLa [36],10
same,Ratio IC50,LNCaP [37],10
same,Ratio IC50,A2780 [38],10
same,GI50,MCF7 [1],6 nM
same,GI50,HeLa [2],< 1 nM
same,GI50,LNCaP [3],3 nM
same,Activity,A2780 [4],10.06%
same,Activity,A2780 [5],59.72%
same,Activity,A2780 [6],50.94%
same,Activity,A2780 [7],2.71%
same,Activity,WI-38 [8],9.81%
same,Activity,WI-38 [9],22.85%
same,Activity,WI-38 [10],9.5%
same,Activity,WI-38 [11],24.87%
same,Activity,WI-38 [12],60.09%
same,Activity,WI-38 [13],6.87%
same,Activity,WI-38 [14],24.94%
same,viability at 0.06 µM,A2780 [15],33.3%
same,Activity,A2780 [16],1.97%
same,Activity,A2780 [17],1.11%
same,Activity,WI-38 [18],13.04%
same,Activity,WI-38 [19],5.41%
same,Activity,WI-38 [20],8.7%
same,Activity,A2780 [39],Active
same,Activity,WI-38 [40],inactive
same,inhibition,A2780 [41],Active
same,inhibition,A2780 [42],Active
same,pKa,[43],4.67
COc1cc(OC)c(/C=C/S(=O)(=O)Cc2ccc(OC)c(NS(C)(=O)=O)n2)c(OC)c1,logD,[21],1.53
same,solubility kinetic,[22],> 100 µM
same,Papp A→B,[23],3.15 ×10⁻⁶ cm/s
same,Papp B→A,[24],53.4 ×10⁻⁶ cm/s
same,half-life,[25],1.88 h
same,IC50,[26],> 25000 nM
same,Cmax,[44],2100 nM
same,bioavailability,[45],50%
same,GI50,MCF7 [1],468 nM
same,GI50,HeLa [2],556 nM
same,GI50,LNCaP [3],450 nM
same,Activity,A2780 [4],0.95%
same,Activity,A2780 [5],21.08%
same,Activity,A2780 [6],19.36%
same,Activity,A2780 [7],7.27%
same,Activity,WI-38 [8],14.51%
same,Activity,WI-38 [9],13.96%
same,Activity,WI-38 [10],13.26%
same,Activity,WI-38 [11],14.08%
same,Activity,WI-38 [12],58.17%
same,Activity,WI-38 [13],9.93%
same,Activity,WI-38 [14],26.14%
same,viability at 0.06 µM,A2780 [15],87.4%
same,Activity,A2780 [16],0.48%
same,Activity,A2780 [17],1.31%
same,Activity,WI-38 [18],18.51%
same,Activity,WI-38 [19],1.11%
same,Activity,WI-38 [20],11.58%
same,Activity,A2780 [46],Active
same,Activity,WI-38 [40],inactive
same,inhibition,A2780 [47],Active
same,pKa,[43],7.28
